{"source": "patent US20090306094A1", "about": "(Bristol-Myers Squibb Company, priority 2006, published 2009)", "origin": "cited, not measured here", "key": {"[1]": {"molecular_target": "T1, BCR-ABL (Homo sapiens, UniProt P00519)", "T1 construct": "BCR (N-terminal part of breakpoint cluster region protein, P11274); the other entry of the earlier key: BCR (P11274, Breakpoint cluster region protein)", "T1 sequence (P00519 242-493 limits assumed)": "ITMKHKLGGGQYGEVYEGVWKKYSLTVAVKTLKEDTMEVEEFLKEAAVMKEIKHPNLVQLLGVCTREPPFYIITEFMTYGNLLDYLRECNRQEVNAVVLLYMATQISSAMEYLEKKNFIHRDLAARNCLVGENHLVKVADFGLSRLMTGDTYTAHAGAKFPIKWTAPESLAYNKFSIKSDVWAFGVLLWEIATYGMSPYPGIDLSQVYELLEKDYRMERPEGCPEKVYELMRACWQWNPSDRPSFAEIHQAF"}, "[2]": {"test_system": "BCR-ABL expressing leukemic cells"}, "[3]": {"test_system": "imatinib-resistant BCR-ABL mutants"}, "[4]": {"test_system": "imatinib-resistant BCR-ABL mutants", "conditions": "number of mutants / number tested"}, "[5]": {"test_system": "wild-type BCR-ABL"}, "[6]": {"test_system": "imatinib-resistant BCR-ABL mutants", "remark": "listed apart in the source"}, "[7]": {"test_system": "cells expressing imatinib-resistant BCR-ABL kinases"}, "[8]": {"test_system": "CML cell"}, "[9]": {"test_system": "leukemic versus normal hematopoietic cells"}, "[10]": {"test_system": "CML patients"}, "[11]": {"test_system": "Crkl phosphorylation in primary CML patient cells", "conditions": "correlated with dephosphorylation of BCR-ABL"}}, "note": "Structures can show the parent of a compound that is named as a salt. Where two headings read alike, the source gives them in different places."}
{"compound": "Cc1cc(Nc2ncc3cc(-c4c(Cl)cccc4Cl)c(=O)n(C)c3n2)ccc1F", "note": "[PD180970]", "values": [{"measurement": "inhibition of BCR-ABL", "setting": "[1]", "result": "inhibit BCR-ABL"}, {"measurement": "apoptosis", "setting": "[2]", "result": "induce apoptosis"}]}
{"compound": "Cc1ccc(NC(=O)c2ccc(CN3CC[C@H](N(C)C)C3)c(C(F)(F)F)c2)cc1Nc1nccc(-c2cncnc2)n1", "note": "[NS-187]", "values": [{"measurement": "inhibition of imatinib-resistant BCR-ABL mutants", "setting": "[3]", "result": "inhibit imatinib-resistant BCR-ABL mutants"}]}
{"compound": "Cc1cn(-c2cc(NC(=O)c3ccc(C)c(Nc4nccc(-c5cccnc5)n4)c3)cc(C(F)(F)F)c2)cn1", "note": "[AMN107]", "values": [{"measurement": "imatinib-resistant BCR-ABL mutants against which significantly active", "setting": "[4]", "result": "32/33"}, {"measurement": "IC50", "setting": "[5]", "result": "[…]"}]}
{"compound": "CP(C)(=O)c1ccc(Nc2nc(C3CCCC3)nc3c2ncn3CCc2cccc(O)c2)cc1", "note": "[AP23464]", "values": [{"measurement": "inhibition of imatinib-resistant BCR-ABL mutants", "setting": "[6]", "result": "inhibit imatinib-resistant BCR-ABL mutants"}]}
{"compound": "COCCNCCOc1ccc(-n2cc(-c3cccc(OC)c3)c3c(N)ncnc32)cc1", "note": "[CGP76030]", "values": [{"measurement": "growth and survival of cells", "setting": "[7]", "result": "inhibit the growth and survival"}]}
{"compound": "COc1cc(Nc2c(C#N)cnc3cc(OCCCN4CCN(C)CC4)c(OC)cc23)c(Cl)cc1Cl", "note": "[SKI-606]", "values": [{"measurement": "antiproliferative activity", "setting": "[8]", "result": "potent antiproliferative activity"}]}
{"compound": "Cc1ccc(NC(=O)c2ccc(CN3CCN(C)CC3)cc2)cc1Nc1nccc(-c2cccnc2)n1", "note": "[imatinib, imatinib mesylate]", "values": [{"measurement": "selectivity for leukemic versus normal hematopoietic cells", "setting": "[9]", "result": "highly selective"}, {"measurement": "estimated 2-year incidence of resistance", "setting": "[10]; blastic phase", "result": 80, "unit": "%"}, {"measurement": "estimated 2-year incidence of resistance", "setting": "[10]; chronic phase post-interferon-α failure", "result": 10, "unit": "%"}, {"measurement": "Crkl phosphorylation", "setting": "[11]", "result": "inhibited in a dose-dependent manner"}]}
